The assay deals with Neurotensin receptor type 1 (Rattus norvegicus, UniProt P20789). Briefly: Tested for binding affinity against Neurotensin receptor.

What is called Ki is a dissociation constant, usually derived from enzyme kinetics or from competition with a known ligand. The low end stands for tighter binding, the high end for weaker binding.

Chain of Neurotensin receptor type 1 (P20789 whole entry): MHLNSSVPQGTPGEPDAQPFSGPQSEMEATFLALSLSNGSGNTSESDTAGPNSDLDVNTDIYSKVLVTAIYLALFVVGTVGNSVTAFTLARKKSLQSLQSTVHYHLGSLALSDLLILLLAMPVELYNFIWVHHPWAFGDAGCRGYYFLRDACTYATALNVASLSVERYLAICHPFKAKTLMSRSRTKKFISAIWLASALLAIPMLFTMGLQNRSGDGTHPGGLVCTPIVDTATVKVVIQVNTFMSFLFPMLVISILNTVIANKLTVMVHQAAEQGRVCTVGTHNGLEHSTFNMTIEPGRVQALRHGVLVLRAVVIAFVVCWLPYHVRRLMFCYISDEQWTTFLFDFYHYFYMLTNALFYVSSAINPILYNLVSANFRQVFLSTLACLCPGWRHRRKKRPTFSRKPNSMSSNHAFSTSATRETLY

Take `CC[C@H](C)[C@H](NC(=O)N(Cc1ccc(O)cc1)c1cccc(NC(=O)[C@H](CCCCN)NC(=O)OC(C)(C)C)c1)C(=O)N[C@@H](CC(C)C)C(=O)O`: affinity was put at a Ki of 1250 nM.

In turn, `CC[C@H](C)[C@H](NC(=O)N(Cc1ccc(O)cc1)c1cccc(NC(=O)[C@H](CCCCN)NC(=O)OC(C)(C)C)c1F)C(=O)N[C@@H](CC(C)C)C(=O)O` came in with an inhibition constant Ki of 2200 nM. This Ki lies about 1.8-fold higher than the previous one.

For the compound `CC[C@H](C)[C@H](NC(=O)N(Cc1ccc(F)cc1)c1cccc(NC(=O)[C@H](CCCCN)NC(=O)OC(C)(C)C)c1)C(=O)N[C@@H](CC(C)C)C(=O)O`, the Ki was found to be 890 nM.

In the case of `CC[C@H](C)[C@H](NC(=O)N(Cc1ccc(O)cc1)c1cccc(NC[C@H](CCCCN)NC(=O)OC(C)(C)C)c1)C(=O)N[C@@H](CC(C)C)C(=O)O`, the affinity corresponds to a Ki of 730 nM.

As for `CC[C@H](C)[C@H](NC(=O)[C@H](Cc1ccc(O)cc1)c1cccc(NC(=O)[C@H](CCCCN)NC(=O)OC(C)(C)C)c1)C(=O)N[C@@H](CC(C)C)C(=O)O`, the inhibition constant Ki came out at 29 nM.

In turn, `CC[C@H](C)[C@H](NC(=O)N(Cc1ccc(O)cc1)c1ccc(F)c(NC(=O)[C@H](CCCCN)NC(=O)OC(C)(C)C)c1)C(=O)N[C@@H](CC(C)C)C(=O)O` displayed a Ki of over 10000 nM.

These data come from ChEMBL document CHEMBL1152097, “Preparation of neurotensin analogs with a novel pro-tyr replacement” (Bioorg Med Chem Lett, 1995).
